A short description of series [1]: Colloidal solubilization of corticosteroid with non-ionic surfactant and lecithin (Lipoid S 100). As to conditions: for solubility: pH 4.5, aqueous with cosolvent or surfactant or cyclodextrin. It counts as physicochemical. The method, then:
In analogy to example 2, colloidal solutions of budesonide were prepared using polysorbate 80 as non-ionic surfactant component (instead of tyloxapol) and lecithin of the commercial grade, Lipoid S 100, as phospholipid component. Citric acid and sodium citrate were used as buffer system to adjust the pH to 4.5. Sodium chloride (0.846% w/w) was used as osmotic excipient. Disodium edetate (0.01% w/w) was incorporated as stabilizer preventing oxidation.
The taste of the samples was acceptable. The average diameter of the colloidal structures ranged from about 40 to about 50 nm, with polydispersity indices of 0.2 to 0.3. The colloidal solution with the lowest concentration of the non-ionic surfactant and phospholipid component was also investigated by small angle X-ray scattering, which indicated the presence of colloidal structures which were probably in the form of unilamellar liposomes.
In analogy to example 9, colloidal solutions of budesonide were prepared using vitamin E TPGS as non-ionic surfactant component and lecithin of the commercial grade, Lipoid S 100, as phospholipid component. The other excipients and their content remained the same as in example 9.
The taste of the samples was acceptable. The particles size of the colloidal structures was about 50 to 55 nm, with polydispersity indices of 0.2 to 0.3.
In analogy to example 9, colloidal solutions of budesonide were prepared using both vitamin E TPGS and polysorbate 80 in combination as non-ionic surfactant component and lecithin of the commercial grade, Lipoid S 100, as phospholipid component. The other excipients and their content remained the same as in example 9.
In analogy to example 9, colloidal solutions of budesonide were prepared using macrogol-15-hydroxystearate as non-ionic surfactant component and lecithin of the commercial grade, Lipoid S 100, as phospholipid component. The other excipients and their content remained the same as in example 9.
In analogy to example 9, colloidal solutions of were prepared using polysorbate 80 as non-ionic surfactant component and lecithin of the commercial grade, Lipoid S 100, as phospholipid component. However, fluticasone propionate was used instead of budesonide as poorly water soluble active agent. The other excipients and their content remained the same as in example 9.

A short description of series [2]: Saturation solubility of budesonide in buffered aqueous tyloxapol / DMPC solutions (0.22 μm filtrate). It counts as physicochemical. As to conditions: for solubility: buffered aqueous tyloxapol/DMPC solution, aqueous with cosolvent or surfactant or cyclodextrin, thermodynamic from solid. As for the experimental part:
Buffered aqueous solutions of tyloxapol, DMPC and tyloxapol in a mixture with DMPC were prepared. The saturation solubility of budesonide in these solutions was measured by adding an excess of budesonide and treating the sample with heat and ultrasound and subsequently allowing it to stand for equilibration. The equilibrated samples were filtered through a membrane filter with a poor width of 0.22 μm and the content of budesonide in the filtrate was determined.

Values after ≈ are worked out from the molar mass of the structure shown.

Consider `CCC(=O)O[C@]1(C(=O)SCF)[C@H](C)C[C@H]2[C@@H]3C[C@H](F)C4=CC(=O)C=C[C@]4(C)[C@@]3(F)[C@@H](O)C[C@@]21C` [Fluticasone prop., fluticasone propionate], for which the Fluticasone prop. solubilized in series [1] (Polysorbate 80 0.10 wt.%, Lipoid S100 1.0 wt.%) was found to be 0.07 mg/mL. In addition, in series [1] (Polysorbate 80 0.50 wt.%, Lipoid S100 3.0 wt.%, read-out: Fluticasone prop. solubilized), the solubility turned out to be 180 µg/mL.

As for `CCCC1O[C@@H]2C[C@H]3[C@@H]4CCC5=CC(=O)C=C[C@]5(C)[C@H]4[C@@H](O)C[C@]3(C)[C@]2(C(=O)CO)O1` (stereo partly shown) [Budesonide, budesonide], the solubility in series [2] (Tyloxapol 0 wt %, DMPC 1 wt %) amounted to 20 µg/mL (≈ 46.5 µM); in series [2] (Tyloxapol 1 wt %, DMPC 0.5 wt %), 268 µg/mL (≈ 622 µM); in series [2] (Tyloxapol 1.5 wt %, DMPC 0 wt %), 204 µg/mL (≈ 474 µM); in series [1] (Polysorbate 80 0.10 wt.%, Lipoid S100 1.0 wt.%, pH 4.5, read-out: Budesonide solubilized), 360 µg/mL; in series [1] (Polysorbate 80 0.15 wt.%, Lipoid S100 1.5 wt.%, pH 4.5, read-out: Budesonide solubilized) it was 430 µg/mL; in series [1] (Polysorbate 80 0.25 wt.%, Lipoid S100 1.5 wt.%, pH 4.5, read-out: Budesonide solubilized), 470 µg/mL. Moreover, the solubility turned out to be 500 µg/mL in series [1] (Polysorbate 80 0.40 wt.%, Lipoid S100 1.5 wt.%, pH 4.5, read-out: Budesonide solubilized); 830 µg/mL in series [1] (Polysorbate 80 0.50 wt.%, Lipoid S100 2.0 wt.%, pH 4.5, read-out: Budesonide solubilized); 1090 µg/mL in series [1] (Polysorbate 80 0.50 wt.%, Lipoid S100 3.0 wt.%, pH 4.5, read-out: Budesonide solubilized); 430 µg/mL in series [1] (Solutrol HS 15 0.10 wt.%, Lipoid S100 1.5 wt.%, read-out: Budesonide solubilized); 470 µg/mL in series [1] (Solutrol HS 15 0.25 wt.%, Lipoid S100 1.5 wt.%, read-out: Budesonide solubilized); 480 µg/mL in series [1] (Solutrol HS 15 0.50 wt.%, Lipoid S100 1.5 wt.%, read-out: Budesonide solubilized). Moreover, the solubility in series [1] (Vitamin E TPGS 0.10 wt.%, Lipoid S100 1.0 wt.%, read-out: Budesonide solubilized) worked out at 370 µg/mL; in series [1] (Vitamin E TPGS 0.10 wt.%, Lipoid S100 1.5 wt.%, read-out: Budesonide solubilized) it was 440 µg/mL; in series [1] (Vitamin E TPGS 0.25 wt.%, Lipoid S100 1.5 wt.%, read-out: Budesonide solubilized), 460 µg/mL; in series [1] (Vitamin E TPGS 0.50 wt.%, Lipoid S100 1.5 wt.%, read-out: Budesonide solubilized) it was 480 µg/mL; in series [1] (Vitamin E TPGS 0.50 wt.%, Lipoid S100 2.0 wt.%, read-out: Budesonide solubilized), 800 µg/mL; in series [1] (vitamin E TPGS 0.04 wt.-%, polysorbate 80 0.06 wt.-%, lecithin 1.0 wt.-%, read-out: Budesonide colloidally solubilized concentration) it was 380 µg/mL. Moreover, the solubility in series [1] (vitamin E TPGS 0.2 wt.-%, polysorbate 80 0.3 wt.-%, lecithin 3.0 wt.-%, read-out: Budesonide colloidally solubilized concentration) came out at 950 µg/mL. In series [2] (on further increasing the DMPC content), the “Saturation concentration of budesonide in DMPC solutions” value was “could not be increased”.

The values above are taken from patent US7758886B2, “Pharmaceutical aerosol composition” (Pari GmbH, priority 2003, dated 2010).
